Source: US7250251B2, “Virion-based fusion assay” (The J. David Gladstone Institutes, priority 2002, dated 2007)

Experiments:
[1] = system: X4-tropic NL4-3 virions containing BlaM-Vpr fusing to SupT1 cells; assay: Virion-based fusion assay (BlaM-Vpr/CCF2) in SupT1 cells, flow cytometry; assay type: cell-based, HIV-1; conditions: NL4-3, 2 hours, about 20% of cells shifted without inhibitor
Procedure: (§1) No antibiotics were added to the culture media.
(§2) Light splitting was performed using a 505 SP filter.
After CCF2/AM loading, fusion was analyzed by multi-parameter flow cytometry using a violet laser for excitation of CCF2.

[2] = system: CXCR4-tropic HIV-1 virions containing BlaM-Vpr fusing to primary PBMCs; assay: Virion-based fusion assay (BlaM-Vpr/CCF2) in PHA-stimulated PBMCs, flow cytometry; assay type: cell-based; conditions: CXCR4-tropic virions 100 ng p24 Gag, 2 hours, 5.2% of cells fused without inhibitor
Procedure: as §1, §2
PBMCs were activated with phytohemagglutinin (PHA) (10 ug/ml) overnight and subsequently cultured in IL-2 (20 IU/ml) for 5 days. The cells were then either mock-infected (FIG. 5, panel a) or infected for 2 hours with 100 ng p24-Gag of X4-tropic NL4-3 virions containing the BlaM-Vpr chimeric viral protein (FIG. 5, panels b, c, d, and e) or 500 ng p24-Gag of R5-tropic […] virions containing the BlaM-Vpr chimeric viral protein (FIG. 5, panels f, g, h, and i) either in the absence of inhibitors (FIG. 5, panel b and f) or in the presence of AMD3100 (250 nM, FIG. 5, panel c and g), […] (250 nM, FIG. 5, panels d and h), or AZT (10 μM, FIG. 5, panels e and i). After CCF2/AM dye loading of the cells, the BlaM reaction was allowed to develop for 12 hours. Virion fusion was analyzed by multi-parameter flow cytometry.

[3] = system: X4-tropic NL4-3 strain of HIV (BlaM-Vpr-containing virions) fusing to HeLa-CD4 cells; conditions: 250 nM added 1 hour prior to infection, NL4-3 200 ng p24-Gag, 2 hours, about 10% blue cells without inhibitor
Procedure: The virion-based fusion assay was performed in three successive steps, including 1) incubation of target cells with virus particles; 2) loading of target cells with CCF2/AM dye, and 3) development and detection of the BlaM reaction. Once target cells were loaded with the CCF2 dye, the cells were maintained at room temperature to avoid export of CCF2. Since viral infections are performed at 37° C., the infection step was performed first, and then the cell cultures were subsequently loaded with the CCF2/AM dye. […]
The change in emission fluorescence of CCF2 following cleavage by the BlaM-Vpr chimera was monitored by flow cytometry using a 3 laser Vantage SE instrument (Becton Dickinson, Inc., San Jose, Calif.). […] Blue emission was detected using an HQ455/50 filter while green emission data was collected using an HQ545/90 BP filter. […] Data were collected using CellQuest and analyzed with FlowJo software (Treestar Inc., San Carlos, Calif.). […]
Cultures of HeLa-CD4 cells expressing endogenous CXCR4 receptors were either mock-infected or infected for 2 hours with BlaM-Vpr-containing virions (200 ng p24-Gag) corresponding to an X4-tropic NL4-3 strain of HIV or an R5-tropic 81A strain of HIV. […] After loading of the cells with the CCF2/AM dye, fusion was analyzed by fluorescence microscopy. […]

[4] = system: CCR5-tropic strain of HIV-1 (81A) containing BlaM-Vpr fusing to CCR5-Jurkat T cells; assay: Virion-based fusion assay (BlaM-Vpr/CCF2) in Jurkat T cells expressing CCR5; assay type: cell-based; conditions: 250 nM preincubation, R5-tropic 81A virions
Procedure: as §1, §2
To investigate whether the BlaM-Vpr assay discriminates between productive and non-productive virion entry by fusion and endocytosis respectively, Jurkat T cells either expressing or not expression CCR5 were incubated with a CCR5-tropic strain of HIV-1 (81A) containing BlaM-Vpr (FIG. 3). […] These 81A virions were capable of fusion as indicated by the increase in blue fluorescence obtained when these virions were incubated with Jurkat T cells expressing CCR5 (FIG. 3, panel d, compare with mock infection control in FIG. 3, panel c).

SMILES	shift to increased blue fluorescence induced by viral infection (virion fusion) ([1]; 250 nM pretreatment)	inhibition of shift to greater blue fluorescence (virion fusion) ([2]; 250 nM pretreatment)	blue cells (virion fusion, CCF2 cleavage) in virally infected cells pretreated with inhibitor [3]	shift to increased blue fluorescence induced by viral infection (virion fusion) ([1]; 10 μM)	inhibition of shift to greater blue fluorescence (virion fusion) ([2]; 10 μM pretreatment)	shift to increased blue fluorescence (virion fusion) [4]
c1cc(CN2CCCNCCNCCCNCC2)ccc1CN1CCCNCCNCCCNCC1 [AMD3100]	almost completely blocked	inhibited this change	essentially no blue cells were detected	–	–	–
Cc1cn([C@H]2C[C@H](N=[N+]=[N-])[C@@H](CO)O2)c(=O)[nH]c1=O [AZT]	–	–	–	did not impair the shift to greater blue fluorescence	produced no inhibitory effect	–
Cc1ccc(-c2ccc3c(c2)C=C(C(=O)Nc2ccc(C[N+](C)(C)C4CCOCC4)cc2)CCC3)cc1.[Cl-] [TAK-779]	–	produced no inhibitory effect	–	–	–	no shift to increased blue fluorescence was observed
